From a compilation of properties of binary mixtures (doi:10.1016/j.jtice.2008.09.006)

Assay: xn = mol fraction of the nth substance listed
Conditions: 101 kPa

CCCC[n+]1ccn(C)c1.F[P-](F)(F)(F)(F)F + O
electrical conductivity [S/m]
Conditions | 293.2 K | 298.2 K | 303.2 K | 308.2 K | 313.2 K | 318.2 K | 323.2 K | 333.2 K | 343.2 K | 353.2 K
x2 = 0.05 | 0.181 | – | 0.291 | 0.351 | 0.423 | – | 0.592 | 0.701 | 0.833 | 1.06
x2 = 0.1 | – | 0.268 | 0.331 | – | 0.488 | 0.563 | – | 0.797 | 0.928 | 1.22
x2 = 0.15 | 0.235 | – | 0.382 | 0.469 | – | 0.675 | 0.792 | 0.923 | – | –
x2 = 0.2 | 0.29 | 0.364 | 0.448 | – | 0.652 | – | 0.911 | – | 1.23 | –
